From US12268683B2, “Compounds and methods for synergistic activation of M channels” (THE REGENTS OF THE UNIVERSITY OF CALIFORNIA, priority 2018, dated 2025) come the findings set out here.

For the test, the system named is water-injected control oocytes. The test is described as follows: TEVC of water-injected control oocytes (endogenous current, EM). In kind it is cell-based, Xenopus laevis. As for the experimental part:
TEVC recording was performed at room temperature with an OC-725C amplifier (Warner Instruments, Hamden, Conn.) and pClamp10.2 software (Molecular Devices, Sunnyvale, Calif.) 3-5 days after cRNA injection as described in the section above. Oocytes were placed in a small-volume oocyte bath (Warner) and viewed with a dissection microscope. Chemicals were sourced from Sigma. Bath solution was (in mM): 96 NaCl, 4 KCl, 1 MgCl2, 1 CaCl2. 10 HEPES (pH 7.6). […] MTX (DMSO), sorbic acid (ethanol), and glutaconic acid (molecular grade H2O) were stored at −20° C. as 1 M stocks. Oleamide was stored as a 1 mM stock in ethanol at 4° C. […] Currents were recorded in response to pulses between −80 and +40 mV at 20 mV intervals, or a single pulse to +40 mV, from a holding potential of −80 mV, to yield current-voltage relationships, current magnitude, and for quantifying activation rate. […]
TEVC recording was performed at room temperature using a OC-725C amplifier (Warner Instruments, Hamden, Conn.) and pClamp8 software (Molecular Devices, Sunnyvale, Calif.) 2-5 days after cRNA injection as described in the section above. […] Currents were recorded in response to pulses between −80 mV and +40 mV at 20 mV intervals, or a single pulse to +40 mV, from a holding potential of −80 mV, to yield current-voltage relationships, current magnitude, and for quantifying activation rate. […]

Regarding `CC(=O)c1c(O)c(C)c(O)c(Cc2c(O)c3c(c(C(=O)/C=C/c4ccccc4)c2O)OC(C)(C)C=C3)c1O` [MTX, mallotoxin], the “effect on endogenous current or EM of water-injected control oocytes” value is on record as “no effect”.
For `NCC1(CC(=O)O)CCCCC1` [gabapentin, reference compound] the value was “no effect”.
